How the values were obtained:
Assay in all cases: relative viability (nuclei count vs DMSO), 5 days (fraction); higher = more cells survive
[1] = compound: COc1cc2nc(N3CCCN(C)CC3)nc(NC3CCN(Cc4ccccc4)CC3)c2cc1OC + O=C(CCCCCCC(=O)Nc1ccccc1)NO [Vorinostat] (partner 1 µM)
Outline: (§1)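 Lung cancer cell lines, seeded in 1536-well plates, were treated the following day by pin tool with a single drug or with five library-drug doses (not always all listed) in √10 steps on top of a fixed anchor-drug dose. Cells were fixed and nuclei stained in one step after 5 days, and nuclei were counted. Relative viability is the nuclei count for treated wells divided by that for vehicle wells, reported as medians of duplicate plates.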

[2] = compound: COc1cc2nc(N3CCCN(C)CC3)nc(NC3CCN(Cc4ccccc4)CC3)c2cc1OC + COc1cccc2cc(-c3nc([C@H]4CC[C@H](C(=O)O)CC4)n4ncnc(N)c34)[nH]c12 [OSI-027] (partner 0.5 µM)
Outline: as §1

AZD6482 + Linsitinib = compound: Cc1cc([C@@H](C)Nc2ccccc2C(=O)O)c2nc(N3CCOCC3)cc(=O)n2c1 [AZD6482] + C[C@]1(O)C[C@@H](c2nc(-c3ccc4ccc(-c5ccccc5)nc4c3)c3c(N)nccn32)C1 [Linsitinib] (partner 1 µM)
Outline: as §1

AZD6482 + Navitoclax = compound: Cc1cc([C@@H](C)Nc2ccccc2C(=O)O)c2nc(N3CCOCC3)cc(=O)n2c1 [AZD6482] + CC1(C)CCC(c2ccc(Cl)cc2)=C(CN2CCN(c3ccc(C(=O)NS(=O)(=O)c4ccc(N[C@H](CCN5CCOCC5)CSc5ccccc5)c(S(=O)(=O)C(F)(F)F)c4)cc3)CC2)C1 [Navitoclax] (partner 0.5 µM)
Outline: as §1

| Cell Line | relative viability ([1]; first compound 0.2 µM) | relative viability ([1]; first compound 0.6325 µM) | relative viability ([1]; first compound 2 µM) | relative viability ([1]; first compound 6.325 µM) | relative viability ([2]; first compound 0.2 µM) | relative viability ([2]; first compound 0.6325 µM) | relative viability ([2]; first compound 2 µM) | relative viability ([2]; first compound 6.325 µM) | relative viability (AZD6482 + Linsitinib; first compound 0.08 µM) | relative viability (AZD6482 + Linsitinib; first compound 0.253 µM) | relative viability (AZD6482 + Linsitinib; first compound 0.8 µM) | relative viability (AZD6482 + Linsitinib; first compound 2.53 µM) | relative viability (AZD6482 + Linsitinib; first compound 8 µM) | relative viability (AZD6482 + Navitoclax; first compound 0.08 µM) | relative viability (AZD6482 + Navitoclax; first compound 0.253 µM) | relative viability (AZD6482 + Navitoclax; first compound 0.8 µM) | relative viability (AZD6482 + Navitoclax; first compound 2.53 µM) | relative viability (AZD6482 + Navitoclax; first compound 8 µM) |
| --- | --- | --- | --- | --- | --- | --- | --- | --- | --- | --- | --- | --- | --- | --- | --- | --- | --- | --- |
| LXF-289 | 0.722 | 0.783 | 0.796 | 0.654 | 0.696 | 0.761 | 0.791 | 0.768 | 0.993 | 1 | 0.971 | 0.806 | 0.781 | 0.974 | 0.955 | 0.997 | 0.954 | 0.854 |
| NCI-H358 | 0.746 | 0.663 | 0.754 | 0.462 | 0.734 | 0.831 | 0.845 | 0.626 | 0.545 | 0.795 | 0.679 | 0.293 | 0.528 | – | – | – | – | – |
| NCI-H522 | 0.803 | 0.884 | 0.879 | 0.676 | 0.654 | 0.755 | 0.74 | 0.499 | – | – | – | – | – | – | – | – | – | – |
| NCI-H650 | 0.573 | 0.391 | 0.475 | 0.321 | 0.532 | 0.483 | 0.508 | 0.329 | 0.856 | – | 0.753 | 0.362 | 0.491 | – | – | – | – | – |
| NCI-H661 | 0.763 | 0.774 | 0.833 | 0.807 | 0.734 | 0.691 | 0.772 | 0.725 | 0.446 | 0.422 | 0.398 | – | 0.37 | – | – | – | – | – |
| NCI-H1299 | – | – | – | – | – | – | – | – | 0.907 | 1.03 | 1.11 | 0.803 | 1.17 | 0.982 | 1.04 | 1.1 | 0.917 | 1.04 |
| NCI-H1563 | – | – | – | – | 0.748 | 0.713 | 0.773 | 0.729 | 1.02 | 0.951 | 0.908 | 0.843 | 0.759 | – | – | – | – | – |
| NCI-H1623 | – | – | – | – | 0.443 | 0.472 | 0.444 | 0.444 | – | – | – | – | – | – | – | – | – | – |
| NCI-H1648 | – | 0.562 | – | 0.616 | 0.258 | 0.318 | 0.313 | 0.275 | – | – | – | – | – | – | – | – | – | – |
| NCI-H1650 | 0.66 | 0.656 | 0.747 | 0.465 | 0.602 | 0.857 | 0.519 | 0.555 | – | – | – | – | – | 0.873 | – | 0.747 | 0.702 | 0.819 |
| NCI-H1703 | – | – | – | – | – | – | – | – | 1.01 | 0.398 | 0.478 | 0.249 | 0.47 | 0.902 | 0.865 | 0.822 | 0.338 | 0.422 |
| NCI-H1792 | – | – | – | – | 0.836 | 0.816 | 0.682 | 0.784 | 0.313 | 0.41 | 0.501 | 0.319 | 0.271 | 0.508 | 0.511 | 0.566 | 0.341 | 0.463 |
| NCI-H2170 | 0.858 | 0.765 | 0.86 | 0.755 | 0.802 | 0.711 | 0.695 | 0.682 | – | – | – | – | – | 0.502 | 0.558 | 0.594 | 0.444 | 0.476 |
| NCI-H2342 | 0.638 | 0.729 | 0.792 | 0.757 | 0.677 | 0.574 | 0.785 | 0.692 | – | – | – | – | – | – | – | – | – | – |
| SW 900 | 0.365 | 0.713 | 0.565 | 0.375 | 0.445 | 0.539 | 0.546 | 0.409 | – | – | – | – | – | – | – | – | – | – |
